Reference: patent US6914045B2, “Glycopeptide antibiotics” (Wyeth Holdings Corporation, priority 2001, dated 2005)
≈ marks a conversion by molar mass, not a printed value.

Columns and labels:
Assay in all cases: in vitro antibacterial evaluation, MIC by broth dilution
Assay type in all cases: cell-based
[1] = tested on: Enterococcus sp.; conditions: broth dilution, 18 hours at 35° C.
In short: (§1)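 Step 1: dilute antibiotic across 64-0.06 μg/mL in Muller-Hinton II […]. Step 2: inoculate at 5×10^5 CFU/mL.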

[2] = tested on: Escherichia coli; conditions: 18 hours at 35° C.
In short: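 Read-out: the lowest concentration at which the test strain fails to grow. Serial dilutions (64-0.06 μg/mL) in Muller-Hinton II […], 5×10^5 CFU/mL inoculum, NCCLS M7-A2 procedure.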

[3] = tested on: Staphylococcus sp.; conditions: broth dilution, 18 hours at 35° C.
In short: as §1

[4] = tested on: Streptococcus sp.; conditions: broth dilution, 18 hours at 35° C.
In short: as §1

## CC(C)CC(=O)OC1C(OC2C(CO)OC(Oc3ccc(CC4NC(=O)C(C(C)c5cccc(F)c5)NC(=O)CNC(=O)C(CO)NC(=O)C(C(O)C5CNC(=N)N5C5OC(CO)C(O)C(O)C5O)NC(=O)C(C(O)C5CNC(=N)N5)NC4=O)cc3)C(O)C2O)OC(CO)C(O)C1O (stereo not drawn) [Example 264a, Cyclo[glycyl-3-fluoro-β-methylphenylalanyl-O-[4-O-[2-O-(3-methylbutanoyl)hexopyranosyl]-hexopyranosyl]tyrosyl-3-(2-iminoimidazolidin-4-yl)seryl-3-(3-hexopyranosyl-2-iminoimidazolidin-4-yl)serylseryl]]
[1]; Enterococcus avium (GC 4558)
  MIC Enterococcus avium (GC 4558): >64 µg/mL
[1]; Enterococcus faecalis (ATCC 29212)
  MIC Enterococcus faecalis (ATCC 29212): 64 µg/mL (≈ 45.8 µM)
[1]; Enterococcus faecalis (GC 4553)
  MIC Enterococcus faecalis (GC 4553): >64 µg/mL
[1]; Enterococcus faecalis (GC 4554)
  MIC Enterococcus faecalis (GC 4554): >64 µg/mL
[1]; Enterococcus faecium (GC 2243)
  MIC Enterococcus faecium (GC 2243): >64 µg/mL
[1]; Enterococcus faecium (GC 4556)
  MIC Enterococcus faecium (GC 4556): 64 µg/mL (≈ 45.8 µM)
[1]; Enterococcus faecium (GC 4557)
  MIC Enterococcus faecium (GC 4557): 32 µg/mL (≈ 22.9 µM)
[1]; strain ATCC 29212
  MIC Enterococcus faecalis (ATCC 29212): 64 µg/mL (≈ 45.8 µM)
[1]; strain GC 2242
  MIC Enterococcus faecalis (GC 2242): 64 µg/mL (≈ 45.8 µM)
[1]; strain GC 2243
  MIC Enterococcus faecium (GC 2243): >64 µg/mL
[1]; strain GC 4552
  MIC Enterococcus faecalis (GC 4552): >64 µg/mL
[1]; strain GC 4553
  MIC Enterococcus faecalis (GC 4553): >64 µg/mL
[1]; strain GC 4554
  MIC Enterococcus faecalis (GC 4554): >64 µg/mL
[1]; strain GC 4556
  MIC Enterococcus faecium (GC 4556): 64 µg/mL (≈ 45.8 µM)
[1]; strain GC 4557
  MIC Enterococcus faecium (GC 4557): 32 µg/mL (≈ 22.9 µM)
[1]; strain GC 4558
  MIC Enterococcus avium (GC 4558): >64 µg/mL
[2]; Escherichia coli (ATCC 25922)
  MIC Escherichia coli (ATCC 25922): 64 µg/mL (≈ 45.8 µM)
[2]; Escherichia coli (GC 4559)
  MIC Escherichia coli (GC 4559): >64 µg/mL
[2]; Escherichia coli (GC 4560)
  MIC Escherichia coli (GC 4560): 4 µg/mL (≈ 2.86 µM)
[3]
  MIC Coagulase Negative Staphylococcus (GC 4547): 8 µg/mL (≈ 5.72 µM)
  MIC Coagulase Negative Staphylococcus (GC 4548): 4 µg/mL (≈ 2.86 µM)
  MIC Coagulase Negative Staphylococcus (GC 4549): 4 µg/mL (≈ 2.86 µM)
  MIC Coagulase Negative Staphylococcus (GC 4551): 16 µg/mL (≈ 11.4 µM)
  MIC Staphylococcus aureus (ATCC 29213): 16 µg/mL (≈ 11.4 µM)
  MIC Staphylococcus aureus (GC 1131): 16 µg/mL (≈ 11.4 µM)
  MIC Staphylococcus aureus (GC 4541): 16 µg/mL (≈ 11.4 µM)
  MIC Staphylococcus aureus (GC 4542): 16 µg/mL (≈ 11.4 µM)
  MIC Staphylococcus aureus (GC 4544): 8 µg/mL (≈ 5.72 µM)
  MIC Staphylococcus aureus (GC 4545): 8 µg/mL (≈ 5.72 µM)
  MIC Staphylococcus aureus-SMITH (GC 4543): 8 µg/mL (≈ 5.72 µM)
  MIC Staphylococcus haemolyticus (GC 4546): 8 µg/mL (≈ 5.72 µM)
[3]; strain ATCC 29213
  MIC Staphylococcus aureus (ATCC 29213): 16 µg/mL (≈ 11.4 µM)
[3]; strain GC 1131
  MIC Staphylococcus aureus (GC 1131): 16 µg/mL (≈ 11.4 µM)
[3]; strain GC 4541
  MIC Staphylococcus aureus (GC 4541): 16 µg/mL (≈ 11.4 µM)
[3]; strain GC 4542
  MIC Staphylococcus aureus (GC 4542): 16 µg/mL (≈ 11.4 µM)
[3]; strain GC 4544
  MIC Staphylococcus aureus (GC 4544): 8 µg/mL (≈ 5.72 µM)
[3]; strain GC 4545
  MIC Staphylococcus aureus (GC 4545): 8 µg/mL (≈ 5.72 µM)
[3]; strain GC 4546
  MIC Staphylococcus haemolyticus (GC 4546): 8 µg/mL (≈ 5.72 µM)
[3]; strain GC 4547
  MIC Coagulase Negative Staphylococcus (GC 4547): 8 µg/mL (≈ 5.72 µM)
[3]; strain GC 4548
  MIC Coagulase Negative Staphylococcus (GC 4548): 4 µg/mL (≈ 2.86 µM)
[3]; strain GC 4549
  MIC Coagulase Negative Staphylococcus (GC 4549): 4 µg/mL (≈ 2.86 µM)
[3]; strain GC 4551
  MIC Coagulase Negative Staphylococcus (GC 4551): 16 µg/mL (≈ 11.4 µM)
[3]; strain SMITH GC 4543
  MIC Staphylococcus aureus-SMITH (GC 4543): 8 µg/mL (≈ 5.72 µM)
[4]; strain GC 4564
  MIC Streptococcus agalactiae (GC 4564): 8 µg/mL (≈ 5.72 µM)
[4]; strain ID-3187
  MIC Streptococcus pyogenes (ID-3187): 4 µg/mL (≈ 2.86 µM)
